From PubChem BioAssay AID328 (DTP/NCI, 2004)
Where “and” joins values, the source holds several entries; their conditions need not be identical. Identical values can stand only once. Toxic doses and inconclusive results are not listed.

Tested on: BDF1 mice, P388 leukemia ip, median survival T/C
Assay: NCI In Vivo Anticancer Drug Screen. Data for tumor model P388 Leukemia (intraperitoneal) in B6D2F1 (BDF1) mice
Conditions: endpoint: median survival time, higher = longer survival
Outline: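 In tumour-bearing mice, survival after compound treatment is set against the vehicle group and given as a quotient.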

[1] = dose: 3.1 micrograms/kg/injection, schedule: Q01DX009 (ip), vehicle: saline + alcohol
[2] = dose: 6.2 micrograms/kg/injection, schedule: Q01DX009 (ip), vehicle: saline + alcohol
[3] = dose: 12.5 micrograms/kg/injection, schedule: Q01DX009 (ip), vehicle: saline + alcohol
[4] = dose: 25.0 micrograms/kg/injection, schedule: Q01DX009 (ip), vehicle: saline + alcohol
[5] = dose: 50.0 micrograms/kg/injection, schedule: Q01DX009 (ip), vehicle: saline + alcohol
[6] = dose: 100.0 micrograms/kg/injection, schedule: Q01DX009 (ip), vehicle: saline + alcohol
[7] = dose: 200.0 micrograms/kg/injection, schedule: Q01DX009 (ip), vehicle: saline + alcohol
[8] = dose: 400.0 micrograms/kg/injection, schedule: Q01DX009 (ip), vehicle: saline + alcohol
[9] = dose: 25.0 mg/kg/injection, schedule: Q01DX009 (ip), vehicle: Klucel (hydroxypropylcellulose) (HPC)
[10] = dose: 50.0 mg/kg/injection, schedule: Q04DX003 (ip), vehicle: saline
[11] = dose: 100.0 mg/kg/injection, schedule: Q04DX003 (ip), vehicle: saline

For `CCCCCCCCCCCCCC(=O)O[C@@H]1[C@@H](C)[C@@]2(O)[C@@H](C=C(CO)C[C@]3(OC)C(=O)C(C)=C[C@@H]23)[C@@H]2C(C)(C)[C@]12OC(C)=O`, the T/C (dose: 0.03 mg/kg/injection, schedule: Q01DX009 (ip), vehicle: saline + alcohol) was 91 % of control, the T/C (dose: 0.06 mg/kg/injection, schedule: Q01DX009 (ip), vehicle: Klucel (hydroxypropylcellulose) (HPC)) was 91 % of control and the T/C (dose: 0.06 mg/kg/injection, schedule: Q01DX009 (ip), vehicle: saline + alcohol) was 94 % of control. For the same compound, the T/C (dose: 0.12 mg/kg/injection, schedule: Q01DX009 (ip), vehicle: Klucel (hydroxypropylcellulose) (HPC)) was 94 % of control, the T/C (dose: 0.12 mg/kg/injection, schedule: Q01DX009 (ip), vehicle: saline + alcohol) was 117 % of control and the T/C (dose: 0.25 mg/kg/injection, schedule: Q01DX009 (ip), vehicle: Klucel (hydroxypropylcellulose) (HPC)) was 94 % of control. The T/C (dose: 0.25 mg/kg/injection, schedule: Q01DX009 (ip), vehicle: saline + alcohol) was 94 % of control, the T/C (dose: 0.5 mg/kg/injection, schedule: Q01DX009 (ip), vehicle: Klucel (hydroxypropylcellulose) (HPC)) was 110 % of control and the T/C (dose: 0.5 mg/kg/injection, schedule: Q01DX009 (ip), vehicle: saline + alcohol) was 107 % of control. For the same compound, the T/C (dose: 1.0 mg/kg/injection, schedule: Q01DX009 (ip), vehicle: Klucel (hydroxypropylcellulose) (HPC)) was 94 % of control, the T/C (dose: 1.0 mg/kg/injection, schedule: Q01DX009 (ip), vehicle: saline + alcohol) was 100 % of control and the T/C (dose: 3.1 micrograms/kg/injection, schedule: Q01DX009 (ip), vehicle: gum acacia) was 106 % of control. The T/C [1] was 94 % of control, the T/C (dose: 3.1 micrograms/kg/injection, schedule: Q01DX009 (ip), vehicle: saline with Tween-80) was 87 % of control and the T/C (dose: 6.2 micrograms/kg/injection, schedule: Q01DX009 (ip), vehicle: gum acacia) was 97 % of control. For the same compound, the T/C [2] was 87 % of control, the T/C (dose: 6.2 micrograms/kg/injection, schedule: Q01DX009 (ip), vehicle: saline with Tween-80) was 97 % of control and the T/C (dose: 12.5 micrograms/kg/injection, schedule: Q01DX009 (ip), vehicle: gum acacia) was 87 % of control. The T/C [3] was 94 % of control, the T/C (dose: 12.5 micrograms/kg/injection, schedule: Q01DX009 (ip), vehicle: saline with Tween-80) was 160 % of control and the T/C [4] was 103 % of control. For the same compound, the T/C (dose: 25.0 micrograms/kg/injection, schedule: Q01DX009 (ip), vehicle: saline with Tween-80) was 103 % of control, the T/C (dose: 50.0 micrograms/kg/injection, schedule: Q01DX009 (ip), vehicle: gum acacia) was 122 % of control and the T/C [5] was 101 % of control. For the same compound, the T/C (dose: 50.0 micrograms/kg/injection, schedule: Q01DX009 (ip), vehicle: saline with Tween-80) was 87 % of control, the T/C (dose: 100.0 micrograms/kg/injection, schedule: Q01DX009 (ip), vehicle: gum acacia) was 106 % of control and the T/C [6] was 97 % of control. The T/C (dose: 100.0 micrograms/kg/injection, schedule: Q01DX009 (ip), vehicle: saline with Tween-80) was 122 % of control, the T/C (dose: 200.0 micrograms/kg/injection, schedule: Q01DX009 (ip), vehicle: gum acacia) was 113 % of control and the T/C [7] was 97 % of control. The T/C (dose: 200.0 micrograms/kg/injection, schedule: Q01DX009 (ip), vehicle: saline with Tween-80) was 106 % of control, the T/C (dose: 400.0 micrograms/kg/injection, schedule: Q01DX009 (ip), vehicle: gum acacia) was 160 % of control and the T/C [8] was 94 % of control. For the same compound, the T/C (dose: 400.0 micrograms/kg/injection, schedule: Q01DX009 (ip), vehicle: saline with Tween-80) was 94 % of control, the T/C (dose: 800.0 micrograms/kg/injection, schedule: Q01DX009 (ip), vehicle: gum acacia) was 94 % of control and the T/C (dose: 800.0 micrograms/kg/injection, schedule: Q01DX009 (ip), vehicle: saline + alcohol) was 106 % of control. The T/C (dose: 800.0 micrograms/kg/injection, schedule: Q01DX009 (ip), vehicle: saline with Tween-80) was 169 % of control.

`CC(=O)OCC12CCC(C)=CC1O[C@H]1[C@@H](OC(C)=O)[C@H](OC(C)=O)[C@]2(C)[C@@]12CO2` (some centres not stated) was tested, and the T/C (dose: 2.5 mg/kg/injection, schedule: Q04DX002 (ip), vehicle: saline + alcohol) was 96 % of control.

With `N#CC1CCCC1=O` (configuration not stated) the T/C (dose: 5.0 mg/kg/injection, schedule: Q01DX009 (ip), vehicle: saline) was 108 % of control and the T/C (dose: 10.0 mg/kg/injection, schedule: Q01DX009 (ip), vehicle: saline) was 91 % of control.

In the case of `COC(=N)CCCCCC(=N)OC`, the T/C (dose: 50.0 mg/kg/injection, schedule: Q01DX005 (ip), vehicle: saline) is reported as 92 % of control, the T/C (dose: 100.0 mg/kg/injection, schedule: Q01DX005 (ip), vehicle: saline) is reported as 97 % of control and the T/C (dose: 200.0 mg/kg/injection, schedule: Q01DX005 (ip), vehicle: saline) is reported as 87 % of control.

In the case of `C=C1C(=O)OC2C1CC/C(C)=C/CCC1(C)OC21` (configuration not stated), the T/C (dose: 70.0 mg/kg/injection, schedule: Q01DX009 (ip), vehicle: Klucel (hydroxypropylcellulose) (HPC)) is reported as 116 % of control.

With `CCOC12CC(OC(=O)N1)C(C)C1OC1(C)C(OC(=O)C(C)N(C)C(C)=O)CC(=O)N(C)c1cc(cc(OC)c1Cl)C/C(C)=C/C=CC2OC` (configuration not stated) the T/C (dose: 1.6 micrograms/kg/injection, schedule: Q01DX009 (ip), vehicle: saline + alcohol) was 99 % of control, the T/C [1] was 99 % of control and the T/C [2] was 99 % of control. For the same compound, the T/C [3] was 101 % of control, the T/C [4] was 116 % of control and the T/C [5] was 98 % of control. The T/C [6] was 105 % of control, the T/C [7] was 98 % of control and the T/C [8] was 100 % of control.

In the case of `N#CC(Nc1ccccc1)C1CC1c1ccccc1` (configuration not stated), the T/C (dose: 12.5 mg/kg/injection, schedule: Q01DX009 (ip), vehicle: Klucel (hydroxypropylcellulose) (HPC)) is reported as 90 % of control, the T/C [9] is reported as 90 % of control and the T/C (dose: 50.0 mg/kg/injection, schedule: Q01DX009 (ip), vehicle: Klucel (hydroxypropylcellulose) (HPC)) is reported as 90 % of control.

With `COc1ccc(C[C@H](N)C(=O)NC2C(CO)OC(n3cnc4c(N(C)C)ncnc43)C2O)cc1` (some centres not stated) the T/C (dose: 25.0 mg/kg/injection, schedule: Q04DX003 (ip), vehicle: saline) was 98 % of control, the T/C [10] was 109 % of control and the T/C (dose: 100.0 mg/kg/injection, schedule: Q01DX009 (ip), vehicle: saline) was 100 % of control. For the same compound, the T/C [11] was 105 % of control.

With `COCCOP(=O)(N1CC1)N1CC1` the T/C (dose: 33.0 mg/kg/injection, schedule: Q04DX003 (ip), vehicle: saline) was 190 % of control, the T/C [10] was 236 % of control and the T/C (dose: 75.0 mg/kg/injection, schedule: Q04DX003 (ip), vehicle: saline) was 272 % of control. The T/C [11] was 118 % of control.

`NC1CSSC1` was tested, and the T/C (dose: 0.39 mg/kg/injection, schedule: Q01DX009 (ip), vehicle: water) was 93 % of control and 108 % of control, the T/C (dose: 1.56 mg/kg/injection, schedule: Q04DX003 (ip), vehicle: water) was 97 % of control and the T/C (dose: 3.12 mg/kg/injection, schedule: Q04DX003 (ip), vehicle: water) was 106 % of control. For the same compound, the T/C (dose: 6.25 mg/kg/injection, schedule: Q01DX009 (ip), vehicle: water) was 91 % of control and 94 % of control and 96 % of control and the T/C (dose: 6.25 mg/kg/injection, schedule: Q04DX003 (ip), vehicle: water) was 105 % of control.

In the case of `O=C(NC(=S)N1CCOCC1)c1ccccc1`, the T/C (dose: 50.0 mg/kg/injection, schedule: Q01DX009 (ip), vehicle: saline with Tween-80) is reported as 100 % of control, the T/C (dose: 100.0 mg/kg/injection, schedule: Q01DX009 (ip), vehicle: saline with Tween-80) is reported as 90 % of control and the T/C (dose: 200.0 mg/kg/injection, schedule: Q01DX009 (ip), vehicle: saline with Tween-80) is reported as 100 % of control. For the same compound, the T/C (dose: 400.0 mg/kg/injection, schedule: Q01DX009 (ip), vehicle: saline with Tween-80) was 97 % of control.

`CC(C)C(=O)[O][Sn]([CH3])([CH3])[CH3]` was tested, and the T/C (dose: 0.75 mg/kg/injection, schedule: Q01DX009 (ip), vehicle: saline) was 100 % of control and the T/C (dose: 1.5 mg/kg/injection, schedule: Q01DX009 (ip), vehicle: saline) was 91 % of control.

For `CN(C)N=Nc1ccccc1[N+](=O)[O-]`, the T/C [9] was 107 % of control and the T/C (dose: 100.0 mg/kg/injection, schedule: Q01DX009 (ip), vehicle: Klucel (hydroxypropylcellulose) (HPC)) was 92 % of control.

For `O=C(CC(=O)C(F)(F)F)c1ccc2c(c1)Cc1ccccc1-2`, the T/C (dose: 100.0 mg/kg/injection, schedule: Q04DX003 (ip), vehicle: saline with Tween-80) was 124 % of control and the T/C (dose: 200.0 mg/kg/injection, schedule: Q04DX003 (ip), vehicle: saline with Tween-80) was 111 % of control.

With `CC(=O)/C(N=Nc1ccccc1)=C(\C)O` the T/C (dose: 25.0 mg/kg/injection, schedule: Q01DX009 (sc), vehicle: olive oil, sesame oil, peanut oil) was 100 % of control, the T/C (dose: 50.0 mg/kg/injection, schedule: Q01DX009 (sc), vehicle: olive oil, sesame oil, peanut oil) was 96 % of control and the T/C (dose: 100.0 mg/kg/injection, schedule: Q01DX009 (sc), vehicle: olive oil, sesame oil, peanut oil) was 112 % of control.
